Assay results taken from patent publication US8530493B2, “Indolopyridines as Eg5 kinesin modulators” (4SC AG, priority 2006, dated 2013).

What was measured:
[1] = system: RKO p27 uninduced (proliferating) colon adenocarcinoma cells; test: Alamar Blue cell viability assay, RKO p27 uninduced (proliferating); assay type: cell-based; details: Homo sapiens, RKOp27, Table B1, anti-proliferative/cytotoxic activity, 72 hours, read-out: −log EC50 RKO p27 uninduced (proliferating) (converted)
Description: The anti-proliferative/cytotoxic activity of the compounds described herein can be tested on subclones of RKO human colon adenocarcinoma cells (Schmidt et al., Oncogene 19, 2423-2429; 2000) using the Alamar Blue cell viability assay (described in O'Brien et al. Eur J Biochem 267, 5421-5426, 2000). The compounds are dissolved as 10 mM solutions in DMSO and subsequently diluted in semi-logarithmic steps. DMSO dilutions are further diluted 1:100 into Dulbecco's modified Eagle's medium (DMEM) containing 10% fetal calf serum to a final concentration twice as much as the final concentration in the test. RKO subclones are seeded into 96 well flat bottom plates at a density of 4000 cells per well in a volume of 50 μl per well. 24 hours after seeding the 50 μl each of the compound dilutions in DMEM medium are added into each well of the 96 well plate. Each compound dilution is tested as triplicates. Wells containing untreated control cells are filled with 50 μl DMEM medium containing 1% DMSO. The cells are then incubated with the substances for 72 hours at 37° C. in a humidified atmosphere containing 5% carbon dioxide. To determine the viability of the cells, 10 μl of an Alamar Blue solution (Biosource) are added and the fluorescence is measured at an extinction of 544 nm and an emission of 590 nm. For the calculation of the cell viability the emission value from untreated cells is set as 100% viability and the emission rates of treated cells are set in relation to the values of untreated cells. Viabilities are expressed as % values. The Graphpad Prism program is used for the calculation of EC50 values for anti-proliferative/cytotoxic activity out of the obtained dose-response curves.
(§1) To determine the cell cycle specific mode of action, subclones of RKO colon adenocarcinoma cells (RKOp21 or RKOp27 as described by Schmidt et al. in Oncogene 19, 2423-2429; 2000) are seeded into 96 well flat bottom plates at a density of 16000 cells per well in a volume of 50 μl per well in DMEM growth medium with 10% FCS containing 10 μM Ponasterone A. 24 hours after seeding the 50 μl each of the compound dilutions in DMEM medium are added into each well of the 96-well plate. Each compound dilution is tested as triplicates. Wells containing untreated control cells are filled with 50 μl DMEM medium containing 1% DMSO. The cells are then incubated with the substances for 72 hours at 37° C. in a humidified atmosphere containing 5% carbon dioxide. To determine the viability of the cells, 10 μl of an Alamar Blue solution (Biosource) are added and the fluorescence is measured at an extinction of 544 nm and an emission of 590 nm. For the calculation of the cell viability the emission value from untreated cells is set as 100% viability and the emission rates of treated cells are set in relation to the values of untreated cells. Viabilities are expressed as % values. The Graphpad Prism program (GraphPad Software, Inc) is used for the calculation of EC50 values out of the obtained dose-response curves. Viability is compared of proliferating cells grown in the absence of the inducer Ponasterone A, versus viability of cells arrested by the expression of ectopic p27Kip1 induced by Ponasterone A.
(§2) Representative values for anti-proliferation/cytotoxicity [measured as −log EC50 (mol/l)] determined in the aforementioned assays follow from the following tables B1, B2 and B3, in which the numbers of the compounds correspond to the numbers of the examples.

[2] = system: RKO p27 induced (arrested) colon adenocarcinoma cells; test: Alamar Blue cell viability assay, RKO p27 induced by Ponasterone A (arrested); assay type: cell-based; details: Homo sapiens, RKOp27, Table B1, cells arrested by Ponasterone A-induced p27Kip1, 72 hours, read-out: −log EC50 RKO p27 induced (arrested) (converted)
Description: as §1, §2

[3] = system: RKO p27 or p21 uninduced (proliferating) colon adenocarcinoma cells; test: Alamar Blue cell viability assay, RKO p27 or p21 uninduced (proliferating); assay type: cell-based; details: Homo sapiens, RKOp27, Table B2, anti-proliferative/cytotoxic activity, 72 hours, read-out: −log EC50 RKO p27 or p21 uninduced (proliferating) (converted)
Method in brief: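 Viability read by Alamar Blue fluorescence (ex 544, em 590 nm), normalised to untreated wells, after 72 h, 37° C, 5% CO2 compound exposure in triplicate. Cells were uninduced (no Ponasterone A), proliferating RKO colon carcinoma p27 or p21 subclones in DMEM with 10% FCS; values are −log EC50 (mol/l).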

[4] = system: RKO p27 or p21 induced (arrested) colon adenocarcinoma cells; test: Alamar Blue cell viability assay, RKO p27 or p21 induced (arrested); assay type: cell-based; details: Homo sapiens, RKOp27, Table B2, cells arrested by Ponasterone A, 72 hours, read-out: −log EC50 RKO p27 or p21 induced (arrested) (converted)
Method in brief: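 RKOp21 or RKOp27 subclones in DMEM/10% FCS with 10 μM Ponasterone A to induce p21/p27 arrest, seeded 24 h before compound; triplicate 72 h exposure at 37 °C. Alamar Blue fluorescence (544/590 nm) as % of untreated (1% DMSO) cells; EC50 from dose-response curves, reported as −log EC50 (mol/l).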

SMILES	EC50 [2]	melting point	EC50 [1]	EC50 [3]	EC50 [4]
COc1ccc2[nH]c3c(c2c1)C[C@@]1(C)C(=O)N(CCn2ccnc2)C(=O)N1[C@@H]3c1cccc(O)c1 (racemic) [Example 13, (3aSR,10RS)-10-(3-Hydroxy-phenyl)-2-(2-imidazol-1-yl-ethyl)-6-methoxy-3a-methyl-3a,4,9,10-tetrahydro-2,9,10a-triaza-cyclopenta[b]fluorene-1,3-dione]	≥ 3160 nM	321 to 324 °C	39.8 to 251 nM	–	–
COc1ccc2[nH]c3c(c2c1)C[C@@]1(C)C(=O)N(CCN2CCOCC2)C(=O)N1[C@@H]3c1cccc(O)c1 (racemic) [Example 10, (3aSR,10RS)-10-(3-Hydroxy-phenyl)-6-methoxy-3a-methyl-2-(2-morpholin-4-yl-ethyl)-3a,4,9,10-tetrahydro-2,9,10a-triaza-cyclopenta[b]fluorene-1,3-dione]	≥ 3160 nM	260 to 263 °C	≤ 39.8 nM	–	–
COc1ccc2[nH]c3c(c2c1)C[C@@]1(C)C(=O)N(CCCN(C)C)C(=O)N1[C@@H]3c1cccc(O)c1 (racemic) [Example 15, (3aSR,10RS)-2-(3-Dimethylamino-propyl)-10-(3-hydroxy-phenyl)-6-methoxy-3a-methyl-3a,4,9,10-tetrahydro-2,9,10a-triaza-cyclopenta[b]fluorene-1,3-dione]	≥ 3160 nM	228 to 231 °C	≤ 39.8 nM	–	–
COc1ccc2[nH]c3c(c2c1)C[C@@]1(C)C(=O)N(CCN2CCCC2)C(=O)N1[C@@H]3c1cccc(O)c1 (racemic) [Example 11, (3aSR,10RS)-10-(3-Hydroxy-phenyl)-6-methoxy-3a-methyl-2-(2-pyrrolidin-1-yl-ethyl)-3a,4,9,10-tetrahydro-2,9,10a-triaza-cyclopenta[b]fluorene-1,3-dione]	≥ 3160 nM	252 to 255 °C	≤ 39.8 nM	–	–
COc1ccc2[nH]c3c(c2c1)C[C@@]1(C)C(=O)N(CCN2CCN(C)CC2)C(=O)N1[C@@H]3c1cccc(O)c1 (racemic) [Example 12, (3aSR,10RS)-10-(3-Hydroxy-phenyl)-6-methoxy-3a-methyl-2-[2-(4-methyl-piperazin-1-yl)ethyl]-3a,4,9,10-tetrahydro-2,9,10a-triaza-cyclopenta[b]fluorene-1,3-dione]	≥ 3160 nM	224 to 227 °C	39.8 to 251 nM	–	–
CCOc1ccc2[nH]c3c(c2c1)C[C@@]1(C)C(=O)N(CCBr)C(=O)N1[C@@H]3c1cccc(O)c1 (racemic) [Example 22, (3aSR,10RS)-2-(2-Bromo-ethyl)-6-ethoxy-10-(3-hydroxy-phenyl)-3a-methyl-3a,4,9,10-tetrahydro-2,9,10a-triaza-cyclopenta[b]fluorene-1,3-dione]	≥ 3160 nM	250 to 252 °C	39.8 to 251 nM	≤ 39.8 nM	≥ 316 nM
COc1ccc2[nH]c3c(c2c1)C[C@@]1(C)C(=O)N(CCNC2CCC2)C(=O)N1[C@@H]3c1cccc(O)c1 (racemic) [Example 50, (3aSR,10RS)-2-(2-Cyclobutylamino-ethyl)-10-(3-hydroxy-phenyl)-6-methoxy-3a-methyl-3a,4,9,10-tetrahydro-2,9,10a-triaza-cyclopenta[b]fluorene-1,3-dione]	≥ 3160 nM	–	≤ 39.8 nM	–	–
CCOc1ccc2[nH]c3c(c2c1)C[C@@]1(C)C(=O)N(C)C(=O)N1[C@@H]3c1cccc(O)c1 (racemic) [Example 1, (3aSR,10RS)-6-Ethoxy-10-(3-hydroxy-phenyl)-2,3a-dimethyl-3a,4,9,10-tetrahydro-2,9,10a-triaza-cyclopenta[b]fluorene-1,3-dione]	≥ 3160 nM	–	39.8 to 251 nM	–	–
COc1ccc2[nH]c3c(c2c1)C[C@@]1(C)C(=O)N(CCBr)C(=O)N1[C@@H]3c1cccc(O)c1 (racemic) [Example 24, (3aSR,10RS)-2-(2-Bromo-ethyl)-10-(3-hydroxy-phenyl)-6-methoxy-3a-methyl-3a,4,9,10-tetrahydro-2,9,10a-triaza-cyclopenta[b]fluorene-1,3-dione]	≥ 3160 nM	299 to 302 °C	39.8 to 251 nM	–	–
COc1ccc2[nH]c3c(c2c1)C[C@@]1(C)C(=O)N(CCN2CCN(C(C)=O)CC2)C(=O)N1[C@@H]3c1cccc(O)c1 (racemic) [Example 32, (3aSR,10RS)-2-[2-(4-Acetyl-piperazin-1-yl)-ethyl]-10-(3-hydroxy-phenyl)-6-methoxy-3a-methyl-3a,4,9,10-tetrahydro-2,9,10a-triaza-cyclopenta[b]fluorene-1,3-dione]	≥ 3160 nM	–	39.8 to 251 nM	–	–

Now from value to compound, other results behind:

EC50 [2]	melting point	SMILES	EC50 [1]	EC50 [3]	EC50 [4]
≥ 3160 nM	283 to 286 °C	CN(C)CCN1C(=O)N2[C@H](c3cccc(O)c3)c3[nH]c4ccc(Cl)cc4c3C[C@@]2(C)C1=O (racemic) [Example 9, (3aSR,10RS)-6-Chloro-2-(2-dimethylamino-ethyl)-10-(3-hydroxy-phenyl)-3a-methyl-3a,4,9,10-tetrahydro-2,9,10a-triaza-cyclopenta[b]fluorene-1,3-dione]	≤ 39.8 nM	–	–
–	262 to 264 °C	C[C@@]12Cc3c([nH]c4ccc(Cl)cc34)[C@@H](c3cccc(O)c3)N1C(=O)N(CCBr)C2=O (racemic)	–	–	–
≥ 3160 nM	286 to 288 °C	CN(C)CCN1C(=O)N2[C@H](c3cccc(O)c3)c3[nH]c4ccc(Br)cc4c3C[C@@]2(C)C1=O (racemic) [Example 8, (3aSR,10RS)-6-Bromo-2-(2-dimethylamino-ethyl)-10-(3-hydroxy-phenyl)-3a-methyl-3a,4,9,10-tetrahydro-2,9,10a-triaza-cyclopenta[b]fluorene-1,3-dione]	≤ 39.8 nM	–	–
≥ 3160 nM	–	C[C@@]12Cc3c([nH]c4ccc(Cl)cc34)[C@@H](c3cccc(O)c3)N1C(=O)N(CCN)C2=O (racemic) [Example 30, (3aSR,10RS)-2-(2-Amino-ethyl)-6-chloro-10-(3-hydroxy-phenyl)-3a-methyl-3a,4,9,10-tetrahydro-2,9,10a-triaza-cyclopenta[b]fluorene-1,3-dione]	≤ 39.8 nM	–	–
≥ 3160 nM	–	C[C@@]12Cc3c([nH]c4ccc(Cl)cc34)[C@@H](c3cccc(O)c3)N1C(=O)N(CCN1CCC1)C2=O (racemic) [Example 29, (3aSR,10RS)-2-(2-Azetidin-1-yl-ethyl)-6-chloro-10-(3-hydroxy-phenyl)-3a-methyl-3a,4,9,10-tetrahydro-2,9,10a-triaza-cyclopenta[b]fluorene-1,3-dione]	≤ 39.8 nM	–	–
